EPA's ToxValDB 9.5
Where “and” joins values, the source holds several entries; their conditions need not be identical. Equal entries are not always repeated. Structures can show the parent of a compound that is named as a salt.

Columns and labels:
Rattus norvegicus [1] = tested on: Rattus norvegicus
Gallus sp. [2] = conditions: subchronic; duration: 3 months; oral; capsule; Nervous system: Ataxia + Nervous system: Delayed neurotoxicity + Whole body: Decreased weight
Gallus sp. [3] = conditions: subchronic; duration: 90 days; oral; F; ataxia, delayed neurotoxicity and weight loss
Homo sapiens [4] = conditions: clinical, oral
Canidae [5] = conditions: subchronic, duration: 90 days, oral, M/F, Beagle, neurological
Rattus norvegicus [6] = conditions: developmental; oral; gavage; Embryotoxic effects
Canidae [7] = conditions: oral, diet, M/F, Dog Other
Homo sapiens [8] = conditions: clinical; oral; M; plasma cholinesterase inhibition
Canidae [9] = conditions: chronic; duration: 2 years; oral; diet; Dog Other; Small intestine: Increased weight + Stomach: Increased weight
Homo sapiens [10] = conditions: clinical; Induction of resistant enterobacteriaceae
Rattus norvegicus [11] = assay: LD0; higher = less toxic; conditions: acute; dermal; semiocclusive; Sprague-Dawley
Oryctolagus sp. = conditions: acute; dermal
Rattus norvegicus [12] = assay: LC100; higher = less toxic; conditions: acute; inhalation
Homo sapiens [13] = conditions: clinical, duration: 14 days, oral, M, hematological
[14] = subchronic, duration: 90 days, inhibition of brain cholinesterase
[15] = chronic, duration: 2 years, increased absolute and relative weight of stomach and small intestine
[16] = short-term, duration: 8 days, oral, gavage, Sprague-Dawley

`CCCCSP(SCCCC)SCCCC` [Merphos] gave an LD50 (Rattus norvegicus [1]; acute, oral, gavage, Crl) of 2480 mg/kg, an NOEL (Gallus sp. [2]) of 0.1 mg/kg-day and an LOAEL (Gallus sp. [3]) of 0.5 mg/kg-day. It also gave an NOEL (Gallus sp. [3]) of 0.1 mg/kg-day.
`O=[N+]([O-])OCC(CO[N+](=O)[O-])O[N+](=O)[O-]` [Trinitroglycerin] was tested, and the LOAEL (Homo sapiens [4]; Hematologic) was 0.036 mg/kg-day.
`CCOP(=S)(OCC)SCSP(=S)(OCC)OCC` [Ethion] showed an NOAEL (Canidae [5]) of 0.06 mg/kg-day, an NOAEL (Canidae [5]; diet) of 0.06 mg/kg-day and an NOAEL (Rattus norvegicus [6]) of 0.2 mg/kg-day. For the same compound, the LEL (Canidae [7]; [14]) was 0.71 mg/kg-day, the NOEL (Canidae [7]; [14]) was 0.06 mg/kg-day and the LEL (Homo sapiens [8]) was 0.075 mg/kg-day. It also gave an NOEL (Homo sapiens [8]) of 0.05 mg/kg-day.
For `O=C(O)[C@@H]1[C@H](C(=O)O)[C@H]2CC[C@@H]1O2` [Endothal], the NOEL (Canidae [9]) was 2 mg/kg-day, the LEL (Canidae [7]; [15]) was 6 mg/kg-day and the NOEL (Canidae [7]; [15]) was 2 mg/kg-day.
Work on `CN(C)[C@@H]1C(=O)C(C(N)=O)=C(O)[C@@]2(O)C(=O)C3=C(O)c4c(O)ccc(Cl)c4[C@@](C)(O)[C@H]3C[C@@H]12` [Chlortetracycline] yielded an LOEL (Homo sapiens [10]) of 20 mg/day and an NOEL (Homo sapiens [10]) of 2 mg/day.
Compound `CC(C)C(C)(C)C(C)(C)C(C)(C)SSSSSC(C)(C)C(C)(C)C(C)(C)C(C)C` [Di-tert-Dodecyl pentasulfide] has an NOAEL (Rattus norvegicus [1]; developmental, duration: 6 days, oral, gavage, Sprague-Dawley) of 1000 mg/kg-day, an NOAEL (Rattus norvegicus [1]; reproduction developmental, duration: 6 days, oral, gavage, F, Sprague-Dawley) of 1000 mg/kg-day and an LOAEL (Rattus norvegicus [1]; [16]) of 2500 mg/kg-day. The NOAEL (Rattus norvegicus [1]; [16]) was 1250 mg/kg-day, the NOAEL (Rattus norvegicus [1]; short-term, duration: 28 days, oral, gavage, Sprague-Dawley) was 1000 mg/kg-day and the LD0 (Rattus norvegicus [11]) was at least 2000 mg/kg.
With `CCOS(=O)(=O)OCC` [Ethyl sulfate (Et2SO4)] the LC50 (Rattus norvegicus [1]; acute, inhalation) was ≥ 1580 mg/m3 and ≤ 3150 mg/m3, the LD50 (Rattus norvegicus [1]; acute, injection, subcutaneous) was 350 mg/kg and the LD50 (Rattus norvegicus [1]; acute, oral) was 880 mg/kg. The LD50 (Oryctolagus sp.) was 706 mg/kg and the LC100 (Rattus norvegicus [12]) was 3150 mg/m3.
Work on `[Co]` [Cobalt] yielded an LOAEL (Homo sapiens [13]) of 1 mg/kg-day, an NOAEL (Homo sapiens [13]; capsule) of 0.8 mg/kg-day and an LOAEL (Homo sapiens [4]; duration: 2 weeks, Endocrine) of 1 mg/kg-day.
